Experimental findings from PubChem BioAssay AID1963856 (Molecular Pharmacology Branch, DTP, NCI, 2024) are described below.

A value given as a limit tells only on which side of the number the result lay.

The test system of the assay is LG0567-F671-PDC KRAS tumor spheroid viability. Nature of the assay: Anticancer human tumor LG0567-F671-PDC patient-derived lung adenocarcinoma cell line growth inhibition [KRAS2]. As to conditions: spheroids with HUVEC and MSC; for viability, T/C: stronger effect = lower value. The essentials: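 Combination screen of spheroid viability in tumor-cell co-cultures with endothelial (HUVEC) and mesenchymal stem cell stroma. Each agent was tested in half-log dilutions, topping at clinical Cmax or at 10 microM without a known Cmax.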

[1] abbreviates: curve of first compound, second compound 0.1 µM.
Setting [2] is: curve of first compound, second compound 0.316 µM.
[3] abbreviates: curve of first compound, second compound 1 µM.
Setting [4] is: curve of first compound, second compound 3.16 µM.
The mark [5] stands for this setting: curve of first compound, second compound 10 µM.
The mark [6] stands for this setting: second compound 0.1 µM, first compound 0.000316 µM.
[7] abbreviates: second compound 0.1 µM, first compound 0.001 µM.
[8] abbreviates: second compound 0.1 µM, first compound 0.00316 µM.
[9] abbreviates: second compound 0.1 µM, first compound 0.01 µM.
Setting [10] is: second compound 0.1 µM, first compound 0.0316 µM.
Setting [11] is: second compound 0.316 µM, first compound 0.000316 µM.
The mark [12] stands for this setting: second compound 0.316 µM, first compound 0.001 µM.
Setting [13] is: second compound 0.316 µM, first compound 0.00316 µM.
Where [14] appears, read: second compound 0.316 µM, first compound 0.01 µM.
The mark [15] stands for this setting: second compound 0.316 µM, first compound 0.0316 µM.
Where [16] appears, read: second compound 1 µM, first compound 0.000316 µM.
Where [17] appears, read: second compound 1 µM, first compound 0.001 µM.
[18] abbreviates: second compound 1 µM, first compound 0.00316 µM.
[19] abbreviates: second compound 1 µM, first compound 0.01 µM.
The mark [20] stands for this setting: second compound 1 µM, first compound 0.0316 µM.
Where [21] appears, read: second compound 3.16 µM, first compound 0.000316 µM.
Setting [22] is: second compound 3.16 µM, first compound 0.001 µM.
The mark [23] stands for this setting: second compound 3.16 µM, first compound 0.00316 µM.
Where [24] appears, read: second compound 3.16 µM, first compound 0.01 µM.
[25] abbreviates: second compound 3.16 µM, first compound 0.0316 µM.
[26] abbreviates: second compound 10 µM, first compound 0.000316 µM.
Setting [27] is: second compound 10 µM, first compound 0.001 µM.
Setting [28] is: second compound 10 µM, first compound 0.00316 µM.
Where [29] appears, read: second compound 10 µM, first compound 0.01 µM.
The mark [30] stands for this setting: second compound 10 µM, first compound 0.0316 µM.
Where [31] appears, read: second compound 0.1 µM, first compound 0.1 µM.
The mark [32] stands for this setting: second compound 0.316 µM, first compound 0.1 µM.
Where [33] appears, read: second compound 1 µM, first compound 0.1 µM.
Where [34] appears, read: second compound 3.16 µM, first compound 0.1 µM.
Where [35] appears, read: second compound 10 µM, first compound 0.1 µM.
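Note: drug exposure lasted seven days after spheroids formed for three days.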
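Throughout, for viability, T/C: 100% = DMSO vehicle control viability.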

As a reminder, the IC50 is the concentration at which inhibition is half-maximal. The viability, T/C is the ratio of treated to control. For `CC(=O)Nc1cccc(-n2c(=O)n(C3CC3)c(=O)c3c(Nc4ccc(I)cc4F)n(C)c(=O)c(C)c32)c1` + COc1cc2nc(C)nc(NC(C)c3cc(N)cc(C(F)(F)F)c3)c2cc1OC1CCOC1, the IC50 runs as follows: under setting [1], 1 nM; under setting [2], 0.299 nM; under setting [3], less than 0.1 nM; under setting [4], less than 0.1 nM; under setting [5], less than 0.1 nM. Also, the viability, T/C (second compound 0.1 µM, first compound 0.0001 µM) was 69.8%; the viability, T/C under setting [6] is 52.6%; the viability, T/C under setting [7] was 53%; the viability, T/C under setting [8] was 39.9%; the viability, T/C under setting [9] is 25.9%; the viability, T/C under setting [10] is 8.34%. Besides, the viability, T/C is 60.9% (second compound 0.316 µM, first compound 0.0001 µM); 48.7% under setting [11]; 36.3% under setting [12]; 33.2% under setting [13]; 22.7% under setting [14]; 11.8% under setting [15]. Further, the viability, T/C reads like this: (second compound 1 µM, first compound 0.0001 µM) 45.4%; under setting [16], 43%; under setting [17], 39.7%; under setting [18], 31.2%; under setting [19], 26.8%; under setting [20], 7.58%. Moreover, the viability, T/C reads like this: (second compound 3.16 µM, first compound 0.0001 µM) 48.6%; under setting [21], 43.7%; under setting [22], 34%; under setting [23], 19.2%; under setting [24], 17.1%; under setting [25], 6.02%. The viability, T/C runs as follows: (second compound 10 µM, first compound 0.0001 µM) 41.3%; under setting [26], 36.6%; under setting [27], 27.2%; under setting [28], 13.4%; under setting [29], 5.95%; under setting [30], 1.33%.
Turning to `CC(C)n1nc(-c2ccc3oc(N)nc3c2)c2c(N)ncnc21` + COc1cc2nc(C)nc(NC(C)c3cc(N)cc(C(F)(F)F)c3)c2cc1OC1CCOC1, the IC50 runs as follows: under setting [1], 56 nM; under setting [2], 15.7 nM; under setting [3], 2.92 nM; under setting [4], 0.992 nM; under setting [5], less than 0.316 nM. For the same molecule, the viability, T/C was 76.4% under setting [6]; 73.5% under setting [7]; 60.4% under setting [8]; 60.6% under setting [9]; 51.8% under setting [10]; 47.5% under setting [31]. For the same molecule, the viability, T/C is 65.2% under setting [11]; 73.6% under setting [12]; 57.7% under setting [13]; 47.5% under setting [14]; 49.8% under setting [15]; 34.7% under setting [32]. Further, the viability, T/C is 70.1% under setting [16]; 59.1% under setting [17]; 45.8% under setting [18]; 45.2% under setting [19]; 28.4% under setting [20]; 23.5% under setting [33]. The viability, T/C reads like this: under setting [21], 59.9%; under setting [22], 49.9%; under setting [23], 38.4%; under setting [24], 32%; under setting [25], 20.5%; under setting [34], 10.2%. The viability, T/C was 37.7% under setting [26]; 35.2% under setting [27]; 24.8% under setting [28]; 16.2% under setting [29]; 11.5% under setting [30]; 9.84% under setting [35].
In the case of `COc1cc(OC)cc(N(CCNC(C)C)c2ccc3ncc(-c4cnn(C)c4)nc3c2)c1`, the viability, T/C (compound 0.316 µM) is 92.2% [middle of 5 runs].
Regarding `COC(=O)c1ccc2c(C(=Nc3ccc(N(C)C(=O)CN4CCN(C)CC4)cc3)c3ccccc3)c(O)[nH]c2c1` + C=CC(=O)N1CCN(c2nc(=O)n(-c3c(C)ccnc3C(C)C)c3nc(-c4c(O)cccc4F)c(F)cc23)C(C)C1, the IC50 runs as follows: under setting [1], less than 31.6 nM; under setting [2], less than 31.6 nM; under setting [3], less than 31.6 nM; under setting [4], less than 31.6 nM; under setting [5], less than 31.6 nM. Also, the viability, T/C is, setting by setting: under setting [10], 23.1%; under setting [31], 22%; (second compound 0.1 µM, first compound 0.316 µM) 25.9%; (second compound 0.1 µM, first compound 1 µM) 28.3%; (second compound 0.1 µM, first compound 3.16 µM) 30%; (second compound 0.1 µM, first compound 10 µM) 33%. The viability, T/C reads like this: under setting [15], 20.8%; under setting [32], 23.3%; (second compound 0.316 µM, first compound 0.316 µM) 20.1%; (second compound 0.316 µM, first compound 1 µM) 23.2%; (second compound 0.316 µM, first compound 3.16 µM) 29.7%; (second compound 0.316 µM, first compound 10 µM) 27.9%. Also, the viability, T/C reads like this: under setting [20], 21.7%; under setting [33], 22%; (second compound 1 µM, first compound 0.316 µM) 21.6%; (second compound 1 µM, first compound 1 µM) 32%; (second compound 1 µM, first compound 3.16 µM) 26.6%; (second compound 1 µM, first compound 10 µM) 30.1%. Further, the viability, T/C by setting is: under setting [25], 18.8%; under setting [34], 18.8%; (second compound 3.16 µM, first compound 0.316 µM) 19.6%; (second compound 3.16 µM, first compound 1 µM) 22.6%; (second compound 3.16 µM, first compound 3.16 µM) 28%; (second compound 3.16 µM, first compound 10 µM) 30.1%. Besides, the viability, T/C is, setting by setting: under setting [30], 26.3%; under setting [35], 24.4%; (second compound 10 µM, first compound 0.316 µM) 22.2%; (second compound 10 µM, first compound 1 µM) 24.6%; (second compound 10 µM, first compound 3.16 µM) 27.9%; (second compound 10 µM, first compound 10 µM) 1.41%.
For `Cn1nccc1Nc1nccc(-c2cc3c(s2)C(C)(C)N(CCN2CCOCC2)C3=O)n1`, the viability, T/C was 95.8% [middle of 5 runs] (compound 0.0316 µM); 89.5% [middle of 5 runs] (compound 0.1 µM); 74.6% [middle of 5 runs] (compound 0.316 µM); 53.3% [middle of 5 runs] (compound 1 µM); 37.5% [middle of 4 runs] (compound 3.16 µM); 30.1% [middle of 5 runs] (compound 10 µM). Also, the IC50 (curve of compound) is 1.25 µM [middle of 5 runs].
